The values that follow come from article PMC3589648, “2D- and 3D-QSAR studies of a series of benzopyranes and benzopyrano[3,4b][1,4]-oxazines as inhibitors of the multidrug transporter P-glycoprotein” (Journal of Computer-Aided Molecular Design, 2013).

The data set has as its target T1, P-glycoprotein (P-gp) (Homo sapiens, UniProt P08183).
T1 construct: The resistant CEM/vcr1000 line was obtained by stepwise selection in vincristine containing medium; endogenous in cells; host or cells: CCRF-CEM vcr1000 (CEM/vcr1000), a human T-lymphoblast line made multidrug resistant by vincristine selection
Nature of the data set: Daunorubicin efflux inhibition in multidrug resistant CCRF-CEM vcr1000 cells. The format is cell-based. The following applies: for factor more active than corresponding unsubstituted analogs 6a and 6b: N-methylated L-valine analogues versus secondary amines. The protocol: Biological activity of target compounds 5a–22b was assessed using the daunorubicin efflux protocol as described previously. Briefly, multidrug resistant CCRF-CEM vcr 1,000 cells were incubated with daunorubicin and the decrease in mean cellular fluorescence in dependence of time was measured in presence of various concentrations of the modulator. IC50 values were calculated from the concentration–response curve of efflux V max /K m versus concentration of the modulator. Thus, the effect of different modulators on the transport rate is measured in a direct functional assay. Values are given in Table 1 and are the mean of at least three independently performed experiments. Generally, inter experimental variation was below 20 %.
The human T-lymphoblast cell line CCRF-CEM and the multidrug resistant CEM/vcr1000 cell line were provided by V. Gekeler (Byk Gulden, Konstanz, Germany). The resistant CEM/vcr1000 line was obtained by stepwise selection in vincristine containing medium. Cells were kept under standard culture conditions (RPMI1640 medium supplemented with 10% fetal calf serum). P-gp-expressing resistant cell line was cultured in presence of 1000 ng/mL vincristine. One week prior to the experiments cells were transferred into medium without selective agents or antibiotics. Briefly, cells were pelleted, the supernatant was removed by aspiration and cells were resuspended at a density of 1 x 10^6/ mL in PRMI1640 medium containing 3µmol/l daunomycin. Cell suspensions were incubated at 37°C for 30 min. After this time a steady state of daunorubicin accumulation was reached. Tubes were chilled on ice and cells were pelleted at 500 x g. Cells were washed once in RPMI1640 medium to remove extracellular daunorubicin. […] Generally, 8 serial dilutions were tested for each modulator. After 1, 2, 3 and 4 min aliquots of the incubation mixture were drawn and pipetted into 4 volumes of ice cold stop solution (RPMI1640 medium containing verapamil at a final concentration of 100 µM). Parental CCRF-CEM cells were used to correct for simple membrane diffusion, which was less than 3% of the efflux rates observed in resistant cells. Samples drawn at the respective time points were kept in an ice water bath and measured within one hour on a Becton Dickinson FACS Calibur (Becton Dickinson, Heidelberg, Germany) flow cytometer as described. Dose response curves were fitted to the data points using non-linear least squares and IC50 values were calculated as described by Chiba et al. […] A CV of below 20% was obtained in all determinations.

Where [1] appears, read: SM Table 2, logarithm of the measured IC50 (μM) of Table 1.
[2] abbreviates: inhibition of P-gp mediated daunorubicin efflux, CCRF-CEM vcr1000 cells, mean of at least three experiments, read-out: IC50 μM ± SD.
Where [3] appears, read: SM Table 2, logarithm of the measured IC50 (μM) of Table 1, read-out: Exp. LogIC50 (converted).

Read-outs that look alike come from different tables or passages of the source.

T1 sequence (P08183 whole entry): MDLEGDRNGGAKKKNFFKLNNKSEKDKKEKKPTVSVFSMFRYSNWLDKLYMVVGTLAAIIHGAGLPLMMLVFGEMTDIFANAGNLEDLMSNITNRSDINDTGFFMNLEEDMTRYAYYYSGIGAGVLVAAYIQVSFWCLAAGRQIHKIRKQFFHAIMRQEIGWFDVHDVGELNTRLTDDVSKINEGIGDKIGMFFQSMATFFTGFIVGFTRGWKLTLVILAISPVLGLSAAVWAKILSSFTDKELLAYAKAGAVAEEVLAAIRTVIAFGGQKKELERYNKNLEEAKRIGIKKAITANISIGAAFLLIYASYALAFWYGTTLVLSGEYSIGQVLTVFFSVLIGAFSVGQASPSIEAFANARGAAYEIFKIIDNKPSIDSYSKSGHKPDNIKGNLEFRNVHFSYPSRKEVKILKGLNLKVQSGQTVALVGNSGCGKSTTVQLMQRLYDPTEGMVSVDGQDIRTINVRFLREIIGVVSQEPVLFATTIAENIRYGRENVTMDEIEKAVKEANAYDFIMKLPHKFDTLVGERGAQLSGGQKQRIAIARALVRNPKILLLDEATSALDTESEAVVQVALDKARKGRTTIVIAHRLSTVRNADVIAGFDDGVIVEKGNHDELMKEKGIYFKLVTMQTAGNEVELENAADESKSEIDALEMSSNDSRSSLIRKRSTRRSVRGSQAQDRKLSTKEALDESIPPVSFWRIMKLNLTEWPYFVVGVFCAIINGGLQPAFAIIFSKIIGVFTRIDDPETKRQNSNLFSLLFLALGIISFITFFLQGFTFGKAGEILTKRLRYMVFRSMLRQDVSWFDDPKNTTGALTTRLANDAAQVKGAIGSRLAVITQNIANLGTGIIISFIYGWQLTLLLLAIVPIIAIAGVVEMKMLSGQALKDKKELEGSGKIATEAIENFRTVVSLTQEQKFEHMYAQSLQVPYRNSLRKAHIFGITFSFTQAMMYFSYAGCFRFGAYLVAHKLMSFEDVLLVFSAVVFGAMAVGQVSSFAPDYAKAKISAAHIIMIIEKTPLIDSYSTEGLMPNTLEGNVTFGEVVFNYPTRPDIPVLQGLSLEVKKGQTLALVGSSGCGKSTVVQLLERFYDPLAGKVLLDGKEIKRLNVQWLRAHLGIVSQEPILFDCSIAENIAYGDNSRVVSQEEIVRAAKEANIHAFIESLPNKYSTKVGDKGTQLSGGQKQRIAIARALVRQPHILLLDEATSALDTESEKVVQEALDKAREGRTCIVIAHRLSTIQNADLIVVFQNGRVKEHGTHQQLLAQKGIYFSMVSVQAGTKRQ

For `C[C@H](N[C@@H]1c2cc(C#N)ccc2OC(C)(C)[C@H]1O)C(=O)OC(C)(C)C` [5a], the “Exp. LogIC50” value under setting [1] was -1.47. In addition, under setting [2], the IC50 worked out at 29.85 ± 0.01 µM.

In the case of `C[C@H](N[C@H]1c2cc(C#N)ccc2OC(C)(C)[C@@H]1O)C(=O)OC(C)(C)C` [5b], the “Exp. LogIC50” value under setting [1] is given as -1.16. For the same compound, the IC50 under setting [2] turned out to be 14.55 ± 0.05 µM.

Turning to `CC(C)[C@H](N[C@@H]1c2cc(C#N)ccc2OC(C)(C)[C@H]1O)C(=O)OC(C)(C)C` [6a], under setting [1], the “Exp. LogIC50” value is -0.38. Also, the IC50 under setting [2] is 2.4 ± 0.03 µM.

As for `CC(C)[C@H](N[C@H]1c2cc(C#N)ccc2OC(C)(C)[C@@H]1O)C(=O)OC(C)(C)C` [6b], under setting [1], the “Exp. LogIC50” value was -0.43. Also, under setting [2], the IC50 was 2.7 ± 0.02 µM.

For the compound `CC(C)(C)OC(=O)[C@H](Cc1ccccc1)N[C@@H]1c2cc(C#N)ccc2OC(C)(C)[C@H]1O` [7a], under setting [1], the “Exp. LogIC50” value was 0.26. Moreover, the IC50 under setting [2] came out at 0.55 ± 0.02 µM.

With `CC(C)(C)OC(=O)[C@H](Cc1ccccc1)N[C@H]1c2cc(C#N)ccc2OC(C)(C)[C@@H]1O` [7b], the “Exp. LogIC50” value under setting [1] amounted to 0.11. The IC50 under setting [2] is 0.77 ± 0.04 µM.

On to `C[C@@H](C(=O)OC(C)(C)C)N(C)[C@@H]1c2cc(C#N)ccc2OC(C)(C)[C@H]1O` [8a], for which the “Exp. LogIC50” value under setting [1] is -0.60. For the same compound, the IC50 under setting [2] is 3.96 ± 0.06 µM.

For the compound `C[C@@H](C(=O)OC(C)(C)C)N(C)[C@H]1c2cc(C#N)ccc2OC(C)(C)[C@@H]1O` [8b], under setting [1], the “Exp. LogIC50” value was -0.57. Besides, the IC50 under setting [2] is 3.72 ± 0.03 µM.

Regarding `CC(C)[C@@H](C(=O)OC(C)(C)C)N(C)[C@@H]1c2cc(C#N)ccc2OC(C)(C)[C@H]1O` [9a], the “factor more active than corresponding unsubstituted analogs 6a and 6b” value is reported as 2. The “Exp. LogIC50” value under setting [1] amounted to 0.02. For the same compound, under setting [2], the IC50 worked out at 0.96 ± 0.06 µM.

On to `CC(C)[C@@H](C(=O)OC(C)(C)C)N(C)[C@H]1c2cc(C#N)ccc2OC(C)(C)[C@@H]1O` [9b], for which the “factor more active than corresponding unsubstituted analogs 6a and 6b” value is 2. The “Exp. LogIC50” value under setting [1] was -0.13. Under setting [2], the IC50 came out at 1.35 ± 0.003 µM.

`CC(C)[C@@H](N[C@@H]1c2cc(C#N)ccc2OC(C)(C)[C@H]1O)C(=O)OC(C)(C)C` [10a]: the “Exp. LogIC50” value under setting [1] is -0.66. For the same compound, the IC50 under setting [2] amounted to 4.62 ± 0.31 µM.

In the case of `CC(C)[C@@H](N[C@H]1c2cc(C#N)ccc2OC(C)(C)[C@@H]1O)C(=O)OC(C)(C)C` [10b], under setting [1], the “Exp. LogIC50” value was -0.13. Besides, the IC50 under setting [2] was found to be 1.34 ± 0.08 µM.

Turning to `CC(C)[C@H](C(=O)OC(C)(C)C)N(C)[C@@H]1c2cc(C#N)ccc2OC(C)(C)[C@H]1O` [11a], the “Exp. LogIC50” value under setting [1] was -0.004. Further, under setting [2], the IC50 is 1.01 ± 0.02 µM.

Take `CC(C)[C@H](C(=O)OC(C)(C)C)N(C)[C@H]1c2cc(C#N)ccc2OC(C)(C)[C@@H]1O` [11b]: under setting [1], the “Exp. LogIC50” value was found to be 0.005. For the same compound, the IC50 under setting [2] stood at 1 ± 0.05 µM.

As to `C[C@@H]1N[C@@H]2c3cc(C#N)ccc3OC(C)(C)[C@H]2OC1=O` [12a], the “Exp. LogIC50” value under setting [1] is recorded as -3.09. Further, the IC50 under setting [2] worked out at 1241.6 ± 0.04 µM. Besides, the “factor less active than diastereomeric 4aR,10bS analogue 12b” value (ratio of P-gp inhibitory potency (IC50), 12a versus 12b) is on record as 15.

Turning to `C[C@@H]1N[C@H]2c3cc(C#N)ccc3OC(C)(C)[C@@H]2OC1=O` [12b], the “Exp. LogIC50” value under setting [1] is listed as -1.88. Further, the IC50 under setting [2] was found to be 76.89 ± 0.06 µM.

`CC(C)[C@@H]1N[C@@H]2c3cc(C#N)ccc3OC(C)(C)[C@H]2OC1=O` [13a]: the “Exp. LogIC50” value under setting [1] is on record as -1.18. For the same compound, the IC50 under setting [2] worked out at 15.3 ± 0.32 µM.

`CC(C)[C@@H]1N[C@H]2c3cc(C#N)ccc3OC(C)(C)[C@@H]2OC1=O` [13b]: the “Exp. LogIC50” value under setting [1] was -1.77. Moreover, the IC50 under setting [2] is 59.3 ± 0.6 µM.

For `CC1(C)Oc2ccc(C#N)cc2[C@H]2N[C@@H](Cc3ccccc3)C(=O)O[C@@H]21` [14a], under setting [1], the “Exp. LogIC50” value is -0.42. In addition, the IC50 under setting [2] was 2.68 ± 0.18 µM. For the same compound, the “more active than diastereomer 14b” value (ratio of P-gp inhibitory potency (IC50), 14a versus 14b) is recorded as “two orders of magnitude more active”.

In the case of `CC1(C)Oc2ccc(C#N)cc2[C@@H]2N[C@@H](Cc3ccccc3)C(=O)O[C@H]21` [14b], the “Exp. LogIC50” value under setting [1] is listed as -2.41. Besides, the IC50 under setting [2] was found to be 259.78 ± 0.06 µM.

As for `C[C@H]1C(=O)O[C@H]2[C@@H](c3cc(C#N)ccc3OC2(C)C)N1C` [15a], the “Exp. LogIC50” value under setting [1] is listed as -1.68. Further, the IC50 under setting [2] worked out at 47.8 ± 0.91 µM.

For `C[C@H]1C(=O)O[C@@H]2[C@H](c3cc(C#N)ccc3OC2(C)C)N1C` [15b], the “Exp. LogIC50” value under setting [1] is -1.46. In addition, the IC50 under setting [2] worked out at 28.93 ± 0.15 µM.

As for `CC(C)[C@H]1C(=O)O[C@H]2[C@@H](c3cc(C#N)ccc3OC2(C)C)N1C` [16a], the IC50 runs as follows: under setting [3], 47.9 µM; under setting [2], 47.51 ± 0.4 µM.

Consider `CC(C)[C@H]1C(=O)O[C@@H]2[C@H](c3cc(C#N)ccc3OC2(C)C)N1C` [16b], for which the IC50 under setting [3] was 16.6 µM and the IC50 under setting [2] is 16.7 ± 0.2 µM.

Take `CC(C)[C@H]1N[C@H]2c3cc(C#N)ccc3OC(C)(C)[C@@H]2OC1=O` [17b]: the IC50 under setting [3] is 9.55 µM and the IC50 under setting [2] came to 9.63 ± 0.08 µM.

For the compound `CC(C)[C@@H]1C(=O)O[C@H]2[C@@H](c3cc(C#N)ccc3OC2(C)C)N1C` [18a], the IC50 is 77.6 µM under setting [3] and 79.27 ± 0.05 µM under setting [2].

On to `CC(C)[C@@H]1C(=O)O[C@@H]2[C@H](c3cc(C#N)ccc3OC2(C)C)N1C` [18b], for which the IC50 is 27.5 µM under setting [3] and 27.84 ± 0.02 µM under setting [2].

For the compound `CC(C)[C@@H](CO)N[C@@H]1c2cc(C#N)ccc2OC(C)(C)[C@H]1O` [19a], the “Exp. LogIC50” value under setting [1] is reported as -1.73. For the same compound, the IC50 under setting [2] was found to be 54.05 ± 0.31 µM.

As for `CC(C)[C@@H](CO)N[C@H]1c2cc(C#N)ccc2OC(C)(C)[C@@H]1O` [19b], under setting [1], the “Exp. LogIC50” value was -2.01. Moreover, the IC50 under setting [2] worked out at 102.6 ± 0.15 µM.

Turning to `CC(C)[C@@H](CO)N(C)[C@@H]1c2cc(C#N)ccc2OC(C)(C)[C@H]1O` [20a], under setting [1], the “Exp. LogIC50” value is given as -0.74. For the same compound, the IC50 under setting [2] worked out at 5.46 ± 0.24 µM.

With `CC(C)[C@@H](CO)N(C)[C@H]1c2cc(C#N)ccc2OC(C)(C)[C@@H]1O` [20b], the “Exp. LogIC50” value under setting [1] is recorded as -0.83. Moreover, under setting [2], the IC50 was 6.84 ± 0.15 µM.

For the compound `CC(C)[C@H]1CO[C@H]2[C@H](N1)c1cc(C#N)ccc1OC2(C)C` [21a, (2S,4aS,10bR)-2-isopropyl-5,5-dimethyl-1,4a,5,10b-tetrahydro-3H [1]benzopyrano[3,4-b][1,4]oxazine-9-carbonitril], the IC50 by setting is: under setting [3], 49 µM; under setting [2], 48.8 ± 0.09 µM.

On to `CC(C)[C@H]1CO[C@@H]2[C@@H](N1)c1cc(C#N)ccc1OC2(C)C` [21b], for which the IC50 by setting is: under setting [3], 43.7 µM; under setting [2], 44 ± 0.03 µM.

On to `CC(C)[C@@H](CCl)N(C)[C@@H]1c2cc(C#N)ccc2OC(C)(C)[C@H]1O` [22a], for which the “Exp. LogIC50” value under setting [1] is -1.55. In addition, the IC50 under setting [2] was 35.22 ± 0.02 µM.

With `CC(C)[C@@H](CCl)N(C)[C@H]1c2cc(C#N)ccc2OC(C)(C)[C@@H]1O` [22b], under setting [1], the “Exp. LogIC50” value is -1.65. Also, the IC50 under setting [2] worked out at 45.17 ± 0.05 µM.
